{"source": "BindingDB's records for patent US12509454", "about": "(Ideaya Biosciences, 2025)", "note": "pIC50: −log10 of the molar value.", "data": [{"molecular_target": "T1, DNA polymerase theta [1-899] (UniProt O75417)", "T1 construct": "1-899", "T1 sequence (O75417 1-899)": "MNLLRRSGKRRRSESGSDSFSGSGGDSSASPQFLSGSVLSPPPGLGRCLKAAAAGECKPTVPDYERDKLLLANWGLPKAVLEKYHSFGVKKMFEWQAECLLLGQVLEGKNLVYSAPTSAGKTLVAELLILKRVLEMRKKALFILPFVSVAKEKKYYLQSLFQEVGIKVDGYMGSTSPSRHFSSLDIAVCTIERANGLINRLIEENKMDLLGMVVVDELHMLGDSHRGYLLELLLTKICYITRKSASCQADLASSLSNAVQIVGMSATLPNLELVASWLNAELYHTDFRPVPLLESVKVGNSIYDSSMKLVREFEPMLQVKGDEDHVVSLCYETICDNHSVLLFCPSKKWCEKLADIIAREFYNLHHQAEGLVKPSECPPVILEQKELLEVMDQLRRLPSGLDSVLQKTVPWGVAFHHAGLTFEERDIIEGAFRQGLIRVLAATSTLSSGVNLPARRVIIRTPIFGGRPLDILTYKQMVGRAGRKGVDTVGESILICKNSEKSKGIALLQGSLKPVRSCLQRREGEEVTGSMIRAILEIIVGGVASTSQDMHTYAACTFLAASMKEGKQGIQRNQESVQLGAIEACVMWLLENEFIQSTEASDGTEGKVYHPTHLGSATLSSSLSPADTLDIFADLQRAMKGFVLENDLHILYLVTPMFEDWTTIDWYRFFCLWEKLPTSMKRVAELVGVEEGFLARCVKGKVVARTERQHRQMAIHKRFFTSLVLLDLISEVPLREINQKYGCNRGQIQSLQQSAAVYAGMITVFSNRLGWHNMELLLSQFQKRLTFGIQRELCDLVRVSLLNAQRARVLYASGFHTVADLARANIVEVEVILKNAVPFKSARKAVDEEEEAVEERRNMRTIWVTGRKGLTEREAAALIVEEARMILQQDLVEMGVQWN", "assay": "ATPase activity of Pol theta (1-899) was determined using the assay", "protocol": "Pol Theta ATPase activity was determined by measuring the rate of ATP turn over in a NADH oxidation-coupled enzymatic assay. 10-point dilution series of compounds were used in a 384 well format for the inhibition assays. Pol theta (1-899) (10 nM) in assay buffer (20 mM Tris HCl (pH 7.80), 80 mM KCl, 10 mM MgCl2, 1 mM DTT, 0.01% BSA, 0.01% Tween, 5% glycerol) was transferred to the test wells (20 μL), except the low control wells (20 μL of assay buffer was added to the low control wells). The plate was then incubated at room temperature for 15 min. An equal volume (20 μL) of 100 μM ATP, 300 nM dT50 (single-stranded DNA (ssDNA) containing 50 thymine bases), 300 μM NADH, 6 mM PEP, 10 U/mL lactate dehydrogenase and 20 U/mL pyruvate kinase in assay buffer was added to all the test wells. The plate was then centrifuged at 1000 rpm for 1 min. The reaction was monitored for 30 min by measuring absorbance (λ=340 nm) in a Tecan Spark multimode plate reader every minute. The high control (DMSO with enzyme) with low absorbance intensity represents no inhibition of ATPase reaction while the low control (DMSO with buffer) with high absorbance intensity represents full inhibition of ATPase activity. Slope of the reaction progress curves were used to calculate the rate of ATP hydrolysis.", "values": [{"compound": "O=C(Nc1nnc(OCc2ccc(Cl)cc2)s1)c1ccncc1N1CCO[C@@H]2C[C@@H]21", "note": "(mixture of isomers) [US12509454, Compound 178]", "pIC50": "> 6.70"}, {"compound": "O=C(Nc1nnc(OCc2ccc(Cl)cc2)s1)c1cccnc1N1CCC(O)CC1", "note": "[US12509454, Compound 20]", "pIC50": "< 6.00"}, {"compound": "CC(C)(O)C#Cc1ccc(C(=O)Nc2nnc(OCc3ccc(Cl)cc3)s2)c(N2CCOCC2)n1", "note": "[US12509454, Compound 29]", "pIC50": "< 6.00"}, {"compound": "N#Cc1cc(-c2c(F)cccc2OC(F)F)c(C(=O)Nc2nnc(OCc3ccc(Cl)cn3)s2)cn1", "note": "[US12509454, Compound 193]", "pIC50": "> 6.70"}]}]}
